Laboratory results reported in publication PMC11310889, “Ribosomal translation of fluorinated non-canonical amino acids for de novo biologically active fluorinated macrocyclic peptides” (Chemical Science, 2024).

What was measured:
Assay type in all cases: cell-based, Escherichia coli
E. coli W3110 [1] = experiment: Protein leakage assay; details: E. coli W3110, 5 μM peptide, 15 min, pellet analysed by SDS-PAGE, compared to R9-treated sample (Fig. S10)
Protocol: Thaw the previously preserved E. coli W3110 cells from the -80 °C freezer. Scrape a small amount and inoculate it into 1 mL of LB liquid medium. Incubate overnight in a 37°C shaker. Next day, transfer the culture to fresh LB liquid medium at a 1:100 inoculation ratio and incubate at 37 °C until the OD600 reaches approximately 0.47 to 0.53. Collect 300 μL of the E. coli W3110 cells and centrifuge for 2 min at 13,000 rpm, discarding the supernatant afterward. Resuspend the untreated group in 300 μL of PBS, and the peptide treatment group in 297 μL of ddH2O. Add 3 μL of 0.5 mM different peptides to the treatment group, mix well, and allow to react for 15 min. After the treatment, resuspend all samples in 15 μL of 6×SDS loading buffer and 15 μL of 10% SDS. All samples were heated at 99.9°C for 15 min, followed by 10% SDS-PAGE analysis and staining with Coomassie brilliant blue R250. […]
(§1) Incubate overnight in a 37°C shaker. […]

E. coli W3110 [2] = experiment: Scanning electron microscopy of cell morphology; details: E. coli W3110 logarithmic-phase, 4 h treatment at 2 μM and 5 μM (Fig. 5B, S11)
Protocol: Thaw the previously preserved E. coli W3110 cells from the -80 °C freezer. […]
Scanning electron microscopy
Thaw the previously preserved E. coli W3110 cells from the -80°C freezer. Scrape a small amount and inoculate it into 1 mL of LB liquid medium. Incubate overnight in a 37°C shaker. The next day, inoculate the strain into fresh LB liquid medium at a 1:100 ratio and incubate at 37°C until the OD600 reaches approximately 0.47 to 0.53. Take 500 μL of E. coli W3110 cells, centrifuge for 10 min at 4000 rpm, and discard the supernatant. Resuspend the cells in 500 μL of PBS, then centrifuge again at 4000 rpm for 10 min and discard the supernatant. Dissolve various macrocyclic peptides in DMSO and dilute to the required concentration. Resuspend the untreated group in 500 μL of PBS.
For the peptide treatment group, resuspend in 495 μL of ddH2O, add 5 μL of 0.2 mM or 0.5 mM peptides, mix well, and let react for 4 h.
After the treament, spot 4 μL of the sample on plates. Perform the first ten-fold dilution and mix, then continue with the second to fifth ten-fold dilutions. Incubate the plates inverted overnight in a 37°C incubator. Scan and count the colonies. For the remaining 492 μL, centrifuge at 6100g for 10 min, discard the supernatant, add 500 μL of ddH2O, and let it stand for 15 min. Centrifuge again at 6100g for 10 min, discard the supernatant, and add 500 μL of ddH2O containing 2.5% glutaraldehyde. Resuspend and fix the cells overnight at 4°C. Centrifuge at 6100g for 10 min, remove the supernatant, and wash twice with ddH2O, letting it stand for 15 min each time, followed by centrifugation at 6100g for 10 min. Discard the supernatant. Dehydrate the sample with ethanol at concentration gradients of 30%, 60%, and 90%, without resuspension, centrifuging at 6100g for […]
10 min and discarding the supernatant after each step. Finally, use 100% ethanol, rest for 15 min, centrifuge at 6100g for 10 min, discard the supernatant, and repeat with 100% ethanol, leaving about 10 μL. Then the critical point was dried and sprayed with gold, and the images were observed by […]
Prediction of binding sites between peptides and the BAM complex
Firstly, the fpocket algorithm was used, a rapid method for pocket prediction based on the three-dimensional structure of BAM complex (PDB ID: 5AYW). This method establishes a grid surrounding the protein, positioning alpha spheres on grid points devoid of spatial conflicts with protein atoms, subsequently utilizing a clustering algorithm to ascertain whether these regions constitute potential binding pockets. Alpha spheres were designated with radii ranging from 3.4Å to 6.2Å, with a prerequisite of at least 15 alpha spheres for a region to be considered a pocket. […]
PepNN evaluated each amino acid for its potentiality as a peptide binding site. […]

E. coli W3110 [3] = experiment: Propidium iodide (PI) assay of membrane permeability; details: E. coli W3110 logarithmic-phase, 15 min treatment with 5 μM peptide, PI 25 μg/mL 15 min (Fig. 5A)
Protocol: Propidium Iodide (PI) assay
Thaw the previously preserved E. coli W3110 cells from the -80 °C freezer. Scrape a small amount and inoculate it into 1 mL of LB liquid medium. Culture overnight in a 37°C shaker. Next day, inoculate the strain into fresh LB liquid medium at a 1:100 ratio and incubate at 37 °C until the OD600 reaches approximately 0.47 to 0.53. Take 100 μL of the E. coli W3110 cells and centrifuge for 2 min at 13,000 rpm. Discard the supernatant. For the untreated group, resuspend the cells in 100 μL of PBS. For the peptide treatment group, resuspend the cells in 99 μL of ddH2O and add 1 […]
μL of 0.5 mM of the different peptides. Mix thoroughly and let react for 15 min. After the treatment, take 80 μL of each sample and incubate with PI at a final concentration of 25 μg/mL for 15 min.
After incubation, wash the samples with the same amount of PBS, centrifuge, and resuspend at a 10-fold concentration. Observe the images using a Nikon Eclipse Ci-L Plus microscope. […]
as §1
Centrifuge again at
6100g for 10 min, discard the supernatant, and add 500 μL of ddH2O containing 2.5% glutaraldehyde. Resuspend and fix the cells overnight at 4°C. Centrifuge at 6100g for 10 min, remove the supernatant, and wash twice with ddH2O, letting it stand for 15 min each time, followed by centrifugation at 6100g for 10 min. Discard the supernatant. Dehydrate the sample with ethanol at concentration gradients of 30%, 60%, and 90%, without resuspension, centrifuging at 6100g for […]

Substance: Ac-(4-F-DPhe)IWHKSLT(4-F-DPhe)NYLHTCGS(Acp)RRRRRRRRR-NH2 (sidechain bridge or staple) [BAM-f2-R9, BAM-f2 conjugated with cell-penetrating peptide R9]
- cellular protein leakage (E. coli W3110 [1]): partial cellular protein leakage
- morphological changes by scanning electron microscopy (E. coli W3110 [2]): severe damage in the cell shape and even lysis
- PI red fluorescence (cell membrane permeability) (E. coli W3110 [3]): notable red fluorescence intensity

Substance: Ac-(4-F-DPhe)KHFIY(4-F-β-Phe)YRSPICGS(Acp)RRRRRRRRR-NH2 (sidechain bridge or staple) [BAM-β3-R9, BAM-β3 conjugated with cell-penetrating peptide R9]
- cellular protein leakage (E. coli W3110 [1]): partial cellular protein leakage
- morphological changes by scanning electron microscopy (E. coli W3110 [2]): severe damage in the cell shape and even lysis
- PI red fluorescence (cell membrane permeability) (E. coli W3110 [3]): notable red fluorescence intensity
